Patent US7432260B2, “Pyrimidine compounds” (Cyclacel Limted, priority 2002, dated 2008)
Read-outs that look alike come from different tables or passages of the source. Blank lines part the entries; values can stand above or below the compound they belong to.

Key:
[1] = tested on: A549; test: 72-h MTT cytotoxicity assay A549; type: cell-based; conditions: Homo sapiens, A549, 72 h
Procedure, shortened: (§1)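 Standard MTT test: 72 h drug exposure at 37° C, 1/3 dilution steps, triplicates, then 4 h MTT and DMSO solubilisation.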

[2] = molecular target: CDK1/cyclin B (Homo sapiens, UniProt P06493); test: Kinase assay CDK1/cyclin B; type: biochemical
Procedure, shortened: (§2)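 Radiometric kinase assays with recombinant enzymes (2-4 μg) and polypeptide substrates in β-glycerophosphate/MOPS/EGTA buffer, pH 7.4. Started with 15 mM MgCl2 + 100 μM ATP containing [γ-32P]-ATP, incubated at 30° C; incorporated 32P captured on filterplates and counted. Compounds diluted in 10% DMSO assay buffer.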

[3] = molecular target: CDK7/cyclin H (Homo sapiens, UniProt P50613); test: CDK7 assay; type: biochemical
Procedure, shortened: (§3)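 Recombinant human CDK7/cyclin H or CDK9/cyclin T1 (0.5–2 μg) phosphorylated biotinylated CTD heptapeptide-repeat substrate for 45 min at 30 °C in MOPS pH 7.2 buffer with 15 mM MgCl2 and 100 μM ATP plus [γ-32P]ATP. After avidin capture on P81 filters and phosphoric acid washes, 32P incorporation was counted by scintillation.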

[4] = molecular target: CDK4/cyclin D1 (Homo sapiens, UniProt P11802); test: Kinase assay CDK4/cyclin D1; type: biochemical
Procedure, shortened: as §2

[5] = tested on: Saos-2; test: 72-h MTT cytotoxicity assay Saos-2; type: cell-based; conditions: Homo sapiens, SAOS-2, 72 h
Procedure, shortened: as §1

[6] = tested on: HT29; test: 72-h MTT cytotoxicity assay HT29; type: cell-based; conditions: Homo sapiens, HT-29, 72 h
Procedure, shortened: as §1

[7] = molecular target: GSK-3β (Homo sapiens, UniProt P49841); test: Kinase assay GSK-3β; type: biochemical
Procedure, shortened: as §2

[8] = molecular target: CDK9/cyclin T1 (Homo sapiens, UniProt P50750); test: CDK9 assay; type: biochemical
Procedure, shortened: as §3

[9] = tested on: DU-145; test: 72-h MTT cytotoxicity assay DU-145; type: cell-based; conditions: Homo sapiens, DU-145, 72 h; Table 5; Prostate
Method: (§4) MTT cytotoxicity assay. […] Standard 72-h MTT (thiazolyl blue; 3-[4,5-dimethylthiazol-2-yl]-2,5-diphenyltetrazolium bromide) assays were performed (Haselsberger, K.; Peterson, D. C.; Thomas, D. G.; Darling, J. L. Anti Cancer Drugs 1996, 7, 331-8; Loveland, B. E.; Johns, T. G.; Mackay, I. R.; Vaillant, F.; Wang, Z. X.; Hertzog, P. J. Biochemistry International 1992, 27, 501-10). In short: cells were seeded into 96-well plates according to doubling time and incubated overnight at 37° C. Test compounds were made up in DMSO and a 1/3 dilution series prepared in 100 μL cell media, added to cells (in triplicates) and incubated for 72 ho at 37° C. MTT was made up as a stock of 5 mg/mL in cell media and filter-sterilised. Media was removed from cells followed by a wash with 200 μL PBS.
(§5) MTT solution was then added at 20 μL per well and incubated in the dark at 37° C. for 4 h. MTT solution was removed and cells again washed with 200 μL PBS. MTT dye was solubilised with 200 μL per well of DMSO with agitation.

[10] = tested on: K562; test: 72-h MTT cytotoxicity assay K562; type: cell-based; conditions: Homo sapiens, K562, 72 h; Table 5; Chronic myelogenous leukaemia
Method: as §4, §5

[11] = molecular target: PKCα (protein kinase C α) (Homo sapiens, UniProt P17252); test: Kinase assay PKCα; type: biochemical; conditions: Table 3 selectivity panel; read-out: Kinase specificity IC50 PKCα
Method: (§6) Kinase assays. […] This was achieved by measurement of incorporation of radioactive phosphate from ATP into appropriate polypeptide substrates. Recombinant protein kinases and kinase complexes were produced or obtained commercially. Assays were performed using 96-well plates and appropriate assay buffers (typically 25 mM β-glycerophosphate, 20 mM MOPS, 5 mM EGTA, 1 mM DTT, 1 mM […], pH 7.4), into which were added 2-4 μg of active enzyme with appropriate substrates. The reactions were initiated by addition of Mg/ATP mix (15 mM MgCl2+100 μM ATP with 30-50 kBq per well of [γ-^32P]-ATP) and mixtures incubated as required at 30° C. Reactions were stopped on ice, followed by filtration through p81 filterplates or GF/C filterplates (Whatman Polyfiltronics, Kent, UK). After washing 3 times with 75 mM aq orthophosphoric acid, plates were dried, scintillant added and incorporated radioactivity measured in a scintillation counter (TopCount, Packard Instruments, Pangbourne, Berks, UK). Compounds for kinase assay were made-up as 10 mM stocks in DMSO and diluted into 10% DMSO inrassay buffer.

[12] = tested on: SJSA-1; test: 72-h MTT cytotoxicity assay SJSA-1; type: cell-based; conditions: Homo sapiens, SJSA-1, 72 h; Table 5; Osteogenic sarcoma
Method: as §4, §5

[13] = tested on: CCRF-CEM; test: 72-h MTT cytotoxicity assay CCRF-CEM; type: cell-based; conditions: Homo sapiens, Table 5, Leukemia
Method: as §4, §5

[14] = tested on: WI38; test: 72-h MTT cytotoxicity assay WI38; type: cell-based; conditions: Homo sapiens, WI-38, 72 h; Table 5; Foetal lung fibroblast (non-transformed)
Method: as §4, §5

[15] = tested on: MCF-7; test: 72-h MTT cytotoxicity assay MCF-7; type: cell-based; conditions: Homo sapiens, MCF7, 72 h; Table 5; Breast
Method: as §4, §5

[16] = molecular target: ERK2 (extracellular-signal-regulated kinase 2) (Homo sapiens, UniProt P28482); test: Kinase assay ERK2; type: biochemical; conditions: Table 3 selectivity panel; read-out: Kinase specificity IC50 ERK2
Method: as §6

[17] = molecular target: CDK2/cyclin A (Homo sapiens, UniProt P24941); test: Kinase assay CDK2/cyclin A; type: biochemical
Procedure, shortened: as §2

[18] = molecular target: CaMKII (calmodulin-depependent kinase II); test: Kinase assay CaMKII; type: biochemical; conditions: Table 3 selectivity panel; read-out: Kinase specificity IC50 CaMKII
Method: as §6

[19] = Table 2, read-out: Kinase Inhibition IC50 CDK1 cyclin B
[20] = Table 2, read-out: Kinase Inhibition IC50 CDK7 cyclin H
[21] = Table 2, read-out: Kinase Inhibition IC50 CDK4 cyclin D1
[22] = Table 2, read-out: Kinase Inhibition IC50 GSK-3β
[23] = Table 2, read-out: Kinase Inhibition IC50 CDK9 cyclin T1
[24] = Table 3 selectivity panel, read-out: Kinase specificity IC50 CDK1/B1
[25] = Table 3 selectivity panel, CDK7/cyclin H/MAT 1 complex, read-out: Kinase specificity IC50 CDK7/H
[26] = Table 3 selectivity panel, read-out: Kinase specificity IC50 CDK4/D1
[27] = Table 3 selectivity panel, glycogen synthase kinase 3β, read-out: Kinase specificity IC50 GSK-3
[28] = Table 3 selectivity panel, read-out: Kinase specificity IC50 CDK9/T1
[29] = Table 2, read-out: Kinase Inhibition IC50 CDK2 cyclin A
[30] = Table 3 selectivity panel, read-out: Kinase specificity IC50 CDK2/A

Sequence of CDK1/cyclin B (P06493 whole entry): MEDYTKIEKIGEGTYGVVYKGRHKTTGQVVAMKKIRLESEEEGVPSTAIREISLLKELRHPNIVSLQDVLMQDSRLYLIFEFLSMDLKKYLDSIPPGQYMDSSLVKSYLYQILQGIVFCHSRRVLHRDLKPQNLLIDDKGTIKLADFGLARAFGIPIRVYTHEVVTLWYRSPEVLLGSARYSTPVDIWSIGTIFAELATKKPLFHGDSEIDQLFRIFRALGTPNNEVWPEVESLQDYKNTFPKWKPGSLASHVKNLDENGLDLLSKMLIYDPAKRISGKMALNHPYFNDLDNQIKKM
Sequence of CDK1/cyclin B (P14635 whole entry partner): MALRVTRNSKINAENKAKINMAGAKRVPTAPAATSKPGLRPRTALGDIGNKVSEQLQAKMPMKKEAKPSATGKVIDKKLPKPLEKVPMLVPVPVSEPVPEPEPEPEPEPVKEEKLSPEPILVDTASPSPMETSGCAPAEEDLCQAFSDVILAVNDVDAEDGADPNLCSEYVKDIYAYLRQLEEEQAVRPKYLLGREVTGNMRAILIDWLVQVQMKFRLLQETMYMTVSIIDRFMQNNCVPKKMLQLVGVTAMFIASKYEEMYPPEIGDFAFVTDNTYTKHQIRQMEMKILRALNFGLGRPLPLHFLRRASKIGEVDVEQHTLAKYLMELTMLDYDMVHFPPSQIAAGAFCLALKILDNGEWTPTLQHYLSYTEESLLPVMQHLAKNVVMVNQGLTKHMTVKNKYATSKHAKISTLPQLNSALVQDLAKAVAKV
Sequence of CDK4/cyclin D1 (P11802 whole entry): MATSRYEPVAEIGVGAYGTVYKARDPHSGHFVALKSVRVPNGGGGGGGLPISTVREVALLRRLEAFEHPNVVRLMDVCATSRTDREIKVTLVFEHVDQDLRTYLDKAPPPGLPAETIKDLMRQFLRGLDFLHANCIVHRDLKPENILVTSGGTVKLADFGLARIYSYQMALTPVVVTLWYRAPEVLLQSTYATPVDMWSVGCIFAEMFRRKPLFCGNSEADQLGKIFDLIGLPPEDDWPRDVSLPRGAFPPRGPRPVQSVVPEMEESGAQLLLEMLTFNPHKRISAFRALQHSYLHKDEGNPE
Sequence of CDK4/cyclin D1 (P24385 whole entry partner): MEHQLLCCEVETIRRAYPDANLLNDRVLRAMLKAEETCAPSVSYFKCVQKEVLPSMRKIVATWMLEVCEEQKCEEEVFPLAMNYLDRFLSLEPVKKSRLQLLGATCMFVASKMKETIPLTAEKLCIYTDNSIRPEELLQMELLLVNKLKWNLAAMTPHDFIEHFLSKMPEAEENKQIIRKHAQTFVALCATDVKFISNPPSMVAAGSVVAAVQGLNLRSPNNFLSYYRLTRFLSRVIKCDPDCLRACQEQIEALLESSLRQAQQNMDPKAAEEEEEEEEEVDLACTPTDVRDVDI
Sequence of ERK2 (extracellular-signal-regulated kinase 2) (P28482 whole entry, species assumed): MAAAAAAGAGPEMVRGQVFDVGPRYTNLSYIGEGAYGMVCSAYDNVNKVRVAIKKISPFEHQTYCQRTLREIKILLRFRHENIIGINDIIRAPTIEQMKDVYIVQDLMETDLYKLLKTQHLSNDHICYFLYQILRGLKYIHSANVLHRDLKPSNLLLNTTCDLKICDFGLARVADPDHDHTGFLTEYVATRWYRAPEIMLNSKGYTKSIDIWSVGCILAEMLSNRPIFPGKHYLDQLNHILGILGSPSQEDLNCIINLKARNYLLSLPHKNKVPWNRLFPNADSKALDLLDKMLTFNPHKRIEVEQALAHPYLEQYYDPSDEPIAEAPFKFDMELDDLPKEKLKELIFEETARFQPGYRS
Sequence of CDK9/cyclin T1 (P50750 whole entry): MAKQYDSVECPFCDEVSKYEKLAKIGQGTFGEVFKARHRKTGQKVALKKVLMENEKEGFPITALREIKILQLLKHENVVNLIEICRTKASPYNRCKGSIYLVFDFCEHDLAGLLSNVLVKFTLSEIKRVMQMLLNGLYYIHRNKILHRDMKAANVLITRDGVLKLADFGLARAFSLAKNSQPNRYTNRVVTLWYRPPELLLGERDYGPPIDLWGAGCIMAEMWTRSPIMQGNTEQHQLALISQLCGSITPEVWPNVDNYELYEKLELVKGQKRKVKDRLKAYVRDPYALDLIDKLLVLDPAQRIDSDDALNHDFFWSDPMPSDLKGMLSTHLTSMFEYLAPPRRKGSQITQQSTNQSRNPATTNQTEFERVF
Sequence of CDK9/cyclin T1 (O60563 whole entry partner): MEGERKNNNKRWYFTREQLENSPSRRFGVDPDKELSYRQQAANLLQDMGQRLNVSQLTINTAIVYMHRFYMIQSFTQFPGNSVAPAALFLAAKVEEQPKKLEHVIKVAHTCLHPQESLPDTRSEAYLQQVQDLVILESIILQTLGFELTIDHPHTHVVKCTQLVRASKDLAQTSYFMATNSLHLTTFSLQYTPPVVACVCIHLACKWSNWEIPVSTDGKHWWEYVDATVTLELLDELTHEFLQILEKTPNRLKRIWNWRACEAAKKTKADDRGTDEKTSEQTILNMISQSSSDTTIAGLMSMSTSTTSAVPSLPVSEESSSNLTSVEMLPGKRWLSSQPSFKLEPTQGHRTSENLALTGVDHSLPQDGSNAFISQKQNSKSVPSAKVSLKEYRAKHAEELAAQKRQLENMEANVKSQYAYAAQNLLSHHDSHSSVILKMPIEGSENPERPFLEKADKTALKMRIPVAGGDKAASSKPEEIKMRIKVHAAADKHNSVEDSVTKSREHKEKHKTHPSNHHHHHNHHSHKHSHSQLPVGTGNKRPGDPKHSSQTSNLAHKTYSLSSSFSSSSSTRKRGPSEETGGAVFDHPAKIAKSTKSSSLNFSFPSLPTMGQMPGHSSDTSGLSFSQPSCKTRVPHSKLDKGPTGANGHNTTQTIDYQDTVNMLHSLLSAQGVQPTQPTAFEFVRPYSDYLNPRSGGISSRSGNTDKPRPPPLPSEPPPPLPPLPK
Sequence of GSK-3β (P49841 whole entry): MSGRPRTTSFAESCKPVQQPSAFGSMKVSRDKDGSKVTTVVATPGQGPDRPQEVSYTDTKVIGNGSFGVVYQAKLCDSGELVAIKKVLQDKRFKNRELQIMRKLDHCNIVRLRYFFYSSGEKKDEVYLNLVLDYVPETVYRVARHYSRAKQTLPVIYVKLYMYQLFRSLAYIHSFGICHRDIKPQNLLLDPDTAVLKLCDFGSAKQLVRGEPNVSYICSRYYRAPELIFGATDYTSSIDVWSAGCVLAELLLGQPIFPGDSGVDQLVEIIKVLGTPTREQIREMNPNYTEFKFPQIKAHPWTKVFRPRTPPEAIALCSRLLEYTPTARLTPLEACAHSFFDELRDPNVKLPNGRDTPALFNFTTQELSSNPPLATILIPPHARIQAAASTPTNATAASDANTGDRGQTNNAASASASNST
Sequence of CDK7/cyclin H (P50613 whole entry): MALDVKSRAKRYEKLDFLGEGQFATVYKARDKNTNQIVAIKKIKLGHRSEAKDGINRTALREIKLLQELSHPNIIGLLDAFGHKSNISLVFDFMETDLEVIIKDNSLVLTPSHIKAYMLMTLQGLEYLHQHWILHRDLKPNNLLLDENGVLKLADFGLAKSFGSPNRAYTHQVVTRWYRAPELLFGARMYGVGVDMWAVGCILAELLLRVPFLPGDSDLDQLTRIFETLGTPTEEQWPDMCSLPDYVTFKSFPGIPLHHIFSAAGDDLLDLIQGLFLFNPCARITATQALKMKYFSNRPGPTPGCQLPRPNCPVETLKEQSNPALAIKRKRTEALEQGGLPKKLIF

IC50 [2, 19]: 30000 nM
IC50 [3, 20]: 12000 nM
IC50 [4, 21]: 430 nM
IC50 [7, 22]: > 100 µM
IC50 [8, 23]: 1800 nM
SMILES: CCNc1nc(C)c(-c2ccnc(Nc3ccc(N4CCOCC4)cc3)n2)s1 [Compound 4, [4-(2-Ethylamino-4-methyl-thiazol-5-yl)-pyrimidin-2-yl]-(4-morpholin-4-yl-phenyl)-amine]
IC50 ([1]; Table 4): 770 nM
IC50 ([5]; Table 4): 1200 nM
IC50 ([6]; Table 4): 920 nM

SMILES: Cc1nc(NC(=O)[C@H](N)[C@@H](C)O)sc1-c1ccnc(Nc2cccc([N+](=O)[O-])c2)n1 [Compound 15, (2R,3R)-2-Amino-3-hydroxy-N-{4-methyl-5-[2-(3-nitro-phenylamino)-pyrimidin-4-yl]-thiazol-2-yl}-butyramide]
IC50 [9]: 1300 nM
IC50 [10]: 4.6 µM
IC50 ([1]; Table 4): 1100 nM
IC50 ([1]; Table 5, Lung): 600 nM
IC50 [2, 19]: 5400 nM
IC50 [2, 24]: 1600 nM
IC50 [11]: > 100 µM
IC50 [3, 20]: 340 nM
IC50 [3, 25]: 390 nM
IC50 [4, 21]: 2000 nM
IC50 [4, 26]: 1600 nM
IC50 ([5]; Table 4): 1900 nM
IC50 ([5]; Table 5, Bone osteosarcoma): 400 nM
IC50 [12]: 1900 nM
IC50 ([6]; Table 4): 1000 nM
IC50 ([6]; Table 5, Colon): 500 nM
IC50 [13]: 2600 nM
IC50 [14]: > 5 µM
IC50 [7, 22]: 0.61 µM
IC50 [7, 27]: 0.54 µM
IC50 [15]: 900 nM
IC50 [8, 23]: 70 nM
IC50 [8, 28]: 110 nM
IC50 [16]: > 100 µM
IC50 [17, 29]: 850 nM
IC50 [17, 30]: 400 nM
IC50 [18]: 3.9 µM

IC50 [2, 19]: 5200 nM
IC50 [3, 20]: 440 nM
IC50 [4, 21]: 40 nM
IC50 [7, 22]: 23 µM
IC50 [8, 23]: 93 nM
IC50 [17, 29]: 5300 nM
SMILES: Cc1nc(C)c(-c2ccnc(Nc3ccc(NC(=O)CN4CCCC4)cc3)n2)s1 [Compound 53, N-{4-[4-(2,4-Dimethyl-thiazol-5-yl)-pyrimidin-2-ylamino]-phenyl}-2-pyrrolidin-1-yl-acetamide]
IC50 ([1]; Table 4): 770 nM
IC50 ([5]; Table 4): 530 nM
IC50 ([6]; Table 4): 950 nM

SMILES: CNc1nc(C)c(-c2ccnc(Nc3ccc(N4CCN(Cc5ccccc5)CC4)cc3)n2)s1 [Compound 11, [4-(4-Benzyl-piperazin-1-yl)-phenyl]-[4-(4-methyl-2-methylamino-thiazol-5-yl)-pyrimidin-2-yl]-amine]
IC50 [9]: 1000 nM
IC50 [10]: 2.1 µM
IC50 ([1]; Table 4): 2200 nM
IC50 ([1]; Table 5, Lung): 2200 nM
IC50 [2, 19]: 2400 nM
IC50 [2, 24]: 2400 nM
IC50 [11]: > 100 µM
IC50 [3, 20]: 19 nM
IC50 [3, 25]: 19 nM
IC50 [4, 21]: 9.8 nM
IC50 [4, 26]: 9.8 nM
IC50 ([5]; Table 4): 3600 nM
IC50 ([5]; Table 5, Bone osteosarcoma): 3700 nM
IC50 [12]: 4300 nM
IC50 ([6]; Table 4): 1600 nM
IC50 ([6]; Table 5, Colon): 1600 nM
IC50 [13]: 500 nM
IC50 [14]: 22 µM
IC50 [7, 22]: 6 µM
IC50 [7, 27]: 6 µM
IC50 [15]: 1900 nM
IC50 [8, 23]: 1100 nM
IC50 [8, 28]: 1100 nM
IC50 [16]: > 100 µM
IC50 [17, 29]: 2200 nM
IC50 [17, 30]: 2200 nM
IC50 [18]: 56 µM

SMILES: CNc1nc(C)c(-c2ccnc(Nc3ccc(N4CCOCC4)cc3)n2)s1 [Compound 3, [4-(2-N-Methylamino-4-methyl-thiazol-5-yl)-pyrimidin-2-yl]-(4-morpholinophenyl)-amine]
IC50 ([1]; Table 4): 3700 nM
IC50 [2, 19]: 71000 nM
IC50 [2, 24]: > 100000 nM
IC50 [11]: > 100 µM
IC50 [3, 20]: 106000 nM
IC50 [3, 25]: > 100000 nM
IC50 [4, 21]: 1400 nM
IC50 [4, 26]: 150 nM
IC50 ([5]; Table 4): 3100 nM
IC50 ([6]; Table 4): 2800 nM
IC50 [7, 22]: > 100 µM
IC50 [7, 27]: > 100 µM
IC50 [8, 23]: 12000 nM
IC50 [8, 28]: 8500 nM
IC50 [16]: > 100 µM
IC50 [18]: > 100 µM

IC50 [11]: > 100 µM
IC50 [3, 20]: 30000 nM
IC50 [3, 25]: 56000 nM
SMILES: Cc1nc(N)sc1-c1ccnc(Nc2ccc(N3CCOCC3)cc2)n1 [Compound 1, [4-(2-Amino-4-methyl-thiazol-5-yl)-pyrimidin-2-yl]-(4-morpholin-4-yl-phenyl)-amine]
IC50 [9]: 1500 nM
IC50 [10]: 3.8 µM
IC50 ([1]; Table 4): 2100 nM
IC50 ([1]; Table 5, Lung): 1000 nM
IC50 ([5]; Table 4): 1900 nM
IC50 ([5]; Table 5, Bone osteosarcoma): 100 nM
IC50 [12]: > 5000 nM
IC50 ([6]; Table 4): 1700 nM
IC50 ([6]; Table 5, Colon): 1100 nM
IC50 [13]: 900 nM
IC50 [14]: > 5 µM
IC50 [15]: > 5000 nM

SMILES: CC[C@@H](N)C(=O)Nc1nc(C)c(-c2ccnc(Nc3cccc([N+](=O)[O-])c3)n2)s1 [Compound 16, (2R)-2-Amino-N-{4-methyl-5-[2-(3-nitro-phenylamino)-pyrimidin-4-yl]-thiazol-2-yl}-butyramide]
IC50 [9]: 600 nM
IC50 [10]: 2.5 µM
IC50 ([1]; Table 4): 530 nM
IC50 ([1]; Table 5, Lung): 500 nM
IC50 [2, 19]: 2800 nM
IC50 [2, 24]: 2800 nM
IC50 [11]: 53 µM
IC50 [3, 20]: 1100 nM
IC50 [3, 25]: 970 nM
IC50 [4, 21]: 6700 nM
IC50 [4, 26]: 6700 nM
IC50 ([5]; Table 5, Bone osteosarcoma): 600 nM
IC50 [12]: 1000 nM
IC50 ([6]; Table 4): 290 nM
IC50 ([6]; Table 5, Colon): 300 nM
IC50 [13]: 1100 nM
IC50 [14]: 1.4 µM
IC50 [7, 22]: 0.68 µM
IC50 [7, 27]: 0.68 µM
IC50 [15]: 390 nM
IC50 [8, 23]: 110 nM
IC50 [8, 28]: 200 nM
IC50 [16]: > 100 µM
IC50 [17, 29]: 650 nM
IC50 [17, 30]: 650 nM
IC50 [18]: 11 µM
